Experimental data as given in patent US20100210532A1, “USE OF NEUROPEPTIDE SF, ALONE OR IN COMBINATION WITH GLP-2, AS A THERAPEUTIC AGENT” (priority 2007, published 2010).
Where no end group is shown, it is not given here.

Experiments:
[1] = system: HIV-1IIIB; test: HIV-1 antiviral assay in CEM-SS cells (MTS readout); settings: positive controls of the HIV-1 assay
[2] = system: hepatitis B virus (HBV) ayw strain; test: HBV experimental assay system, HepG2-2.2.15 cells, secreted HBV DNA by TaqMan PCR; format: cell-based; settings: 10 micrograms per ml, six days, combination 0.95 mole peptide 1 and 1.05 mole peptide 2
[3] = system: Human A549 cells; test: Apoptosis prevention assay (C2 ceramide, Annexin-5); format: cell-based; settings: 10 micrograms per ml, 30 min pretreatment
[4] = system: Interleukin-5 (IL-5); test: Th1/Th2 cytokine profiling assay, IL-5; format: cell-based, mouse; settings: 10 micrograms per ml, Ovalbumin-restimulated Balb/c spleen cells, 72 hours; for change of the production of IL-5 in murine spleen cells: combination 0.95 mole peptide 1 and 1.05 mole peptide 2
Text: (§1) The Balb/c mice (originated in 1923, it is a popular strain and is used in many different research disciplines. […] On day 50, spleens of the mice were harvested (3 weeks after last boost with Ovalbumin). […] This kit can be used to measure Interleukin-2 (IL-2), Interleukin-4 (IL-4), Interleukin-5 (IL-5), Interferon-γ (IFN-γ), and Tumor Necrosis Factor-α (TNF-α) protein levels in a single sample. The kit performance has been optimized for analysis of physiologically relevant concentrations ([…] levels) of specific cytokine proteins in tissue culture supernatants and serum samples.

[5] = system: HUVEC; test: Endothelial tube formation assay; format: cell-based, human; settings: 10 micrograms per ml, 20 hours
Method: The endothelial tube formation assay is based on the ability of endothelial cells to form three-dimensional capillary-like tubular structures when cultured on a gel of basement membrane extract. The endothelial tube formation assay represents a powerful model for studying inhibition and induction of angiogenesis. Pre-labeled HUVEC with Calcein AM were seeded in a 96-well culture plate coated with extracellular metrix (Chemicon international Cat. ECM625) and treated with test peptides-10 micrograms per ml-in full growth medium. […] control was vehicle only. […] Duplicate wells for each treatment were photographed and quantitatevily analyzed for an average tubule length using image analysis software ImageProPlus. Raw data were expressed as average tubule […]±standard deviation. Statistic p values were computed using the Student's t-test.

[6] = system: Interferon-γ (IFN-γ); test: Th1/Th2 cytokine profiling assay, IFN-γ; format: cell-based, mouse; settings: 10 micrograms per ml, Ovalbumin-restimulated Balb/c spleen cells, 72 hours
Text: as §1

[7] = system: Primary Human endothelial cells (HUVEC); test: Endothelial cell migration assay; format: cell-based; settings: 10 micrograms per ml, 22 hours
[8] = system: Interleukin-4 (IL-4); test: Th1/Th2 cytokine profiling assay, IL-4; format: cell-based, mouse; settings: 10 micrograms per ml, Ovalbumin-restimulated Balb/c spleen cells, 72 hours; for production of IL-4 in murine spleen cells, induced by: combination 0.95 mole peptide 1 and 1.05 mole peptide 2
Text: as §1

[9] = system: Interleukin-2 (IL-2); test: Th1/Th2 cytokine profiling assay, IL-2; format: cell-based, mouse; settings: 10 micrograms per ml, Ovalbumin-restimulated Balb/c spleen cells, 72 hours; for production of IL-2 in murine spleen cells, induced by: combination 0.95 mole peptide 1 and 1.05 mole peptide 2
Text: as §1

[10] = system: Tumor Necrosis Factor-α (TNF-α); test: Th1/Th2 cytokine profiling assay, TNF-α; format: cell-based, mouse; settings: 10 micrograms per ml, Ovalbumin-restimulated Balb/c spleen cells, 72 hours; for production of TNF-alpha in murine spleen cells, induced by: combination 0.95 mole peptide 1 and 1.05 mole peptide 2
Text: as §1

[11] = system: HCMV strain AD169; test: HCMV plaque formation assay in MRC-5 cells; settings: for inhibition of HCMV plaque formation as compared to the virus control experiment: 10 micrograms per ml, MRC-5 cells, 7-10 days, combination 0.95 mole peptide 1 and 1.05 mole peptide 2

CC(C)(C)NC(=O)[C@@H]1CN(Cc2cccnc2)CCN1C[C@@H](O)C[C@@H](Cc1ccccc1)C(=O)N[C@H]1c2ccccc2C[C@H]1O [indinavir]
antiviral activity of positive control compounds [1]: expected levels of antiviral activity

Ser-Gln-Ala-Phe-Leu-Phe-Gln-Pro-Gln-Arg-Phe-NH2 (SQAFLFQPQRF-NH2) [Peptide 1]
inhibition of HBV replication as compared to the virus control infection [2]: 16.7%
reduction of the ceramide-induced apoptosis on human lung cells [3]: 16.45%
IL-5 spleen cells; TH2 response (% of control) [4]: 91.6 % of control
change of the production of IL-5 in murine spleen cells [4]: did not significantly change
inhibition of the tube formation of human endothelial cells [5]: 19%
IFNγ spleen cells; TH1 response (% of control) [6]: 68.0 % of control
production of IFN-γ in murine spleen cells, decreased by [6]: 32.0%
inhibition of the migration of human endothelial cells [7]: 33%
IL-4 spleen cells; TH2 response (% of control) [8]: 242.2 % of control
production of IL-4 in murine spleen cells, induced by [8]: 142.2%
IL-2 spleen cells (% of control) [9]: 112.4 % of control
production of IL-2 in murine spleen cells, induced by [9]: did not significantly change
TNF-a spleen cells; TH1 response (% of control) [10]: 106.3 % of control
production of TNF-alpha in murine spleen cells, induced by [10]: did not significantly change
inhibition of HCMV plaque formation as compared to the virus control experiment [11]: 31.3%

Nc1nc(O)c2ncn(COC(CO)CO)c2n1 [Ganciclovir, reference compound]
antiviral activity of positive control compound ([11]; positive control of the HCMV assay): expected levels of antiviral activity

Cc1cn([C@H]2C[C@H](N=[N+]=[N-])[C@@H](CO)O2)c(=O)[nH]c1=O [AZT]
antiviral activity of positive control compounds [1]: expected levels of antiviral activity

His-Ala-Asp-Gly-Ser-Phe-Ser-Asp-Glu-Met-Asn-Thr-Ile-Leu-Asp-Asn-Leu-Ala-Ala-Arg-Asp-Phe-Ile-Asn-Trp-Leu-Ile-Gln-Thr-Lys-Ile-Thr-Asp-OH [Peptide 2]
inhibition of HBV replication as compared to the virus control infection [2]: 59.2%
reduction of the ceramide-induced apoptosis on human lung cells [3]: did not reduce
IL-5 spleen cells; TH2 response (% of control) [4]: 108.4 % of control
change of the production of IL-5 in murine spleen cells [4]: did not significantly change
inhibition of the tube formation of human endothelial cells [5]: 12%
IFNγ spleen cells; TH1 response (% of control) [6]: 132.7 % of control
production of IFN-γ in murine spleen cells, induced by ([6]; combination 0.95 mole peptide 1 and 1.05 mole peptide 2): 32.7%
inhibition of the migration of human endothelial cells [7]: did not inhibit
IL-4 spleen cells; TH2 response (% of control) [8]: 104.4 % of control
production of IL-4 in murine spleen cells, induced by [8]: did not significantly change
IL-2 spleen cells (% of control) [9]: 183.3 % of control
production of IL-2 in murine spleen cells, induced by [9]: 83.3%
TNF-a spleen cells; TH1 response (% of control) [10]: 143.7 % of control
production of TNF-alpha in murine spleen cells, induced by [10]: 43.7%
inhibition of HCMV plaque formation as compared to the virus control experiment [11]: 18.8%
